# Reference: patent US10131673B2, “Piperidine substituted tricyclic pyrazolo[1,5-a]pyrimidine derivatives with inhibitory activity on the replication of the respiratory syncytial virus (RSV)” (priority 2014, dated 2018)
# What was measured:
# rgRSV224 virus = test: microbe, parasite or virus in culture; assay type: cell-based, respiratory syncytial virus (RSV); conditions: human respiratory syncytial virus, HeLa, 72 h, read-out: RSV HELA pEC50 (converted)
# Protocol for HeLa cells: Black 384-well clear-bottom microtiter plates (Corning, Amsterdam, The Netherlands) were filled via acoustic drop ejection using the echo liquid handler (Labcyte, Sunnyvale, Calif.). 200 nL of compound stock solutions (100% DMSO) were transferred to the assay plates. 9 serial 4-fold dilutions of compound were made, creating per quadrant the same compound concentration. The assay was initiated by adding 10 μL of culture medium to each well (RPMI medium without phenol red, 10% FBS-heat inactivated, 0.04% gentamycin (50 mg/mL). All addition steps are done by using a multidrop dispenser (Thermo Scientific, Erembodegem, Belgium). Next, rgRSV224 virus (MOI=1) diluted in culture medium was added to the plates. rgRSV224 virus is an engineered virus that includes an additional GFP gene (Hallak L K, Spillmann D, Collins P L, Peeples M E. Glycosaminoglycan sulfation requirements for respiratory syncytial virus infection; Journal of virology (2000), 74(22), 10508-13) and was in-licensed from the NIH (Bethesda, Md., USA). Finally, 20 μL of a HeLa cell suspension (3,000 cells/well) were plated. Medium, virus- and mock-infected controls were included in each test. The wells contain 0.05% DMSO per volume. Cells were incubated at 37° C. in a 5% CO2 atmosphere. Three days post-virus exposure, viral replication was quantified by measuring GFP expression in the cells by an in house developed MSM laser microscope (Tibotec, Beerse, Belgium). The EC50 was defined as the 50% inhibitory concentration for GFP expression. In parallel, compounds were incubated for three days in a set of white 384-well microtiter plates (Corning) and the cytotoxicity of compounds in HeLa cells was determined by measuring the ATP content of the cells using the ATPlite kit (Perkin Elmer, Zaventem, Belgium) according to the manufacturer's instructions. The CC50 was defined as the 50% concentration for cytotoxicity.
SMILES,EC50 (rgRSV224 virus),TOX HELA pCC50 (HeLa cells)
"CCc1ccc2ncnc(N3CCCCC3c3cc4nc5c(c(N6CCOCC6)n4n3)CCCC5)c2c1C (stereo not shown) [Compound P13, 4-(2-(1-(6-ethyl-5-methylquinazolin-4-yl)piperidin-2-yl)-5,6,7,8-tetrahydropyrazolo[5,1-b]quinazolin-9-yl)morpholine]",724 nM,4.7
"Cc1ccc2nc(Cl)nc(N3CCCCC3c3cc4nc5c(c(N6CCOCC6)n4n3)CCCC5)c2c1 (stereo not shown) [Compound P8, 4-(2-(1-(2-chloro-6-methylquinazolin-4-yl)piperidin-2-yl)-5,6,7,8-tetrahydropyrazolo[5,1-b]quinazolin-9-yl)morpholine]",162 nM,4.5
"Cc1ccc(NS(C)(=O)=O)c(C(=O)N2CCCCC2c2cc3nc4c(c(N5CCOCC5)n3n2)CCCCC4)c1 (stereo not shown) [Compound P23, N-(4-methyl-2-(2-(10-morpholino-6,7,8,9-tetrahydro-5H-cyclohepta[d]-pyrazolo[1,5-a]pyrimidin-2-yl)piperidine-1-carbonyl)phenyl)-methanesulfonamide]",66.1 nM,4.6
"Cc1cccc2nc(NS(C)(=O)=O)nc(N3CCCCC3c3cc4nc5c(c(N6CCOCC6)n4n3)CCCC5)c12 (stereo not shown) [Compound P7, N-(5-methyl-4-(2-(9-morpholino-5,6,7,8-tetrahydropyrazolo[5,1-b]-quinazolin-2-yl)piperidin-1-yl)quinazolin-2-yl)methanesulfonamide]",6.03 nM,4.2
"Cc1ccc(NS(C)(=O)=O)c(C(=O)N2CCCCC2c2cc3nc4c(c(N5CCOCC5)n3n2)COC4)c1 (stereo not shown) [Compound P25, N-(4-methyl-2-(2-(8-morpholino-5,7-dihydrofuro[3,4-d]pyrazolo[1,5-a]-pyrimidin-2-yl)piperidine-1-carbonyl)phenyl)methanesulfonamide]",468 nM,4
"Cc1ccc(NS(C)(=O)=O)c(C(=O)N2CCCC[C@H]2c2cc3nc4c(c(N5CCOCC5)n3n2)CCCC4)c1 [Compound P3, (S)—N-(4-methyl-2-(2-(9-morpholino-5,6,7,8-tetrahydropyrazolo[5,1-b]quinazolin-2-yl)piperidine-1-carbonyl)-phenyl)methanesulfonamide]",0.562 nM,4.5
"Cc1cccc2nc(NS(C)(=O)=O)nc(N3CCCCC3c3cc4nc5c(c(N6CCOCC6)n4n3)COCC5)c12 (stereo not shown) [Compound P32, N-(5-methyl-4-(2-(9-morpholino-6,8-dihydro-5H-pyrano[4,3-d]pyrazolo-[1,5-a]pyrimidin-2-yl)piperidin-1-yl)quinazolin-2-yl)methanesulfonamide]",55 nM,4
"Cc1cccc2ncnc(N3CCCCC3c3cc4nc5c(c(N(C)C)n4n3)CCN5C)c12 (stereo not shown) [Compound P42, N,N,5-trimethyl-2-(1-(5-methylquinazolin-4-yl)piperidin-2-yl)-6,7-dihydro-5H-pyrazolo[1,5-a]pyrrolo[2,3-d]pyrimidin-8-amine]",16.6 nM,4.6
"Cc1cccc2ncnc(N3CCCCC3c3cc4nc5c(c(N6CCOCC6)n4n3)CCOC5)c12 (stereo not shown) [Compound P29, 2-(1-(5-methylquinazolin-4-yl)piperidin-2-yl)-9-morpholino-7,8-dihydro-5H-pyrano[3,4-d]pyrazolo[1,5-a]pyrimidine]",3720 nM,4
"Cc1cccc2ncnc(N3CCCCC3c3cc4nc5c(c(N6CCOCC6)n4n3)CCC5)c12 (stereo not shown) [Compound P21, 4-(2-(1-(5-methylquinazolin-4-yl)piperidin-2-yl)-6,7-dihydro-5H-cyclopenta[d]pyrazolo[1,5-a]pyrimidin-8-yl)morpholine]",708 nM,4.6
"Cc1ccc(NS(C)(=O)=O)c(C(=O)N2CCCCC2c2cc3nc4c(c(N(C)C)n3n2)CCCN4C)c1 (stereo not shown) [Compound P26, N-(2-(2-(9-(dimethylamino)-5-methyl-5,6,7,8-tetrahydropyrazolo-[1,5-a]pyrido[2,3-d]pyrimidin-2-yl)piperidine-1-carbonyl)-4-methylphenyl)-methane-sulfonamide]",1.58 nM,4.4
